# Data: ChEMBL document CHEMBL1201862, “PubChem BioAssay data set” (2004)
# Activity calls are given as the source filed them.
# Experiments:
# [1] = Shn3 3'UTR reporter signal decrease – cell-based, Clone20 osteoblasts, firefly luciferase, cherry-pick, set 2, Schnurri-3 inhibitor project, dose response (AID 720490); format: functional;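 also: actives lower the luminescence signal as inhibitors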
# [2] = EF1alpha-driven Renilla reporter with control 3'UTR suppression – Clone20-Shn3RL cells, dual-Glo, cherry-pick, set 2, counter-screen for Shn3 3'UTR targeting project, dose response (AID 720724); format: functional, cell-based; conditions: Dual-Go Shn3RL
# [3] = reduction of Shn3 3'UTR-driven luciferase in osteoblasts – cell-based, Clone20 osteoblasts, firefly luciferase, cherry-picked, dose response (AID 624132); format: functional;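 also: firefly luciferase luminescence from reporter carrying the Shn3 3'UTR in osteoblasts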
# [4] = non-specific 3'UTR reporter inhibition in Clone20-Shn3RL – cell-based, Renilla luciferase, cherry-picked, counter-screen for Shn3 inhibitor project, dose response (AID 624133); format: functional
# [5] = target: ATP-dependent translocase ABCB1 (Homo sapiens, UniProt P08183); experiment: P-gp JC-1 efflux blockers potency – Jurkat-DNR cells, flow cytometry, follow-up, dose response (AID 489002); format: functional
# Chain of ATP-dependent translocase ABCB1 (P08183 whole entry): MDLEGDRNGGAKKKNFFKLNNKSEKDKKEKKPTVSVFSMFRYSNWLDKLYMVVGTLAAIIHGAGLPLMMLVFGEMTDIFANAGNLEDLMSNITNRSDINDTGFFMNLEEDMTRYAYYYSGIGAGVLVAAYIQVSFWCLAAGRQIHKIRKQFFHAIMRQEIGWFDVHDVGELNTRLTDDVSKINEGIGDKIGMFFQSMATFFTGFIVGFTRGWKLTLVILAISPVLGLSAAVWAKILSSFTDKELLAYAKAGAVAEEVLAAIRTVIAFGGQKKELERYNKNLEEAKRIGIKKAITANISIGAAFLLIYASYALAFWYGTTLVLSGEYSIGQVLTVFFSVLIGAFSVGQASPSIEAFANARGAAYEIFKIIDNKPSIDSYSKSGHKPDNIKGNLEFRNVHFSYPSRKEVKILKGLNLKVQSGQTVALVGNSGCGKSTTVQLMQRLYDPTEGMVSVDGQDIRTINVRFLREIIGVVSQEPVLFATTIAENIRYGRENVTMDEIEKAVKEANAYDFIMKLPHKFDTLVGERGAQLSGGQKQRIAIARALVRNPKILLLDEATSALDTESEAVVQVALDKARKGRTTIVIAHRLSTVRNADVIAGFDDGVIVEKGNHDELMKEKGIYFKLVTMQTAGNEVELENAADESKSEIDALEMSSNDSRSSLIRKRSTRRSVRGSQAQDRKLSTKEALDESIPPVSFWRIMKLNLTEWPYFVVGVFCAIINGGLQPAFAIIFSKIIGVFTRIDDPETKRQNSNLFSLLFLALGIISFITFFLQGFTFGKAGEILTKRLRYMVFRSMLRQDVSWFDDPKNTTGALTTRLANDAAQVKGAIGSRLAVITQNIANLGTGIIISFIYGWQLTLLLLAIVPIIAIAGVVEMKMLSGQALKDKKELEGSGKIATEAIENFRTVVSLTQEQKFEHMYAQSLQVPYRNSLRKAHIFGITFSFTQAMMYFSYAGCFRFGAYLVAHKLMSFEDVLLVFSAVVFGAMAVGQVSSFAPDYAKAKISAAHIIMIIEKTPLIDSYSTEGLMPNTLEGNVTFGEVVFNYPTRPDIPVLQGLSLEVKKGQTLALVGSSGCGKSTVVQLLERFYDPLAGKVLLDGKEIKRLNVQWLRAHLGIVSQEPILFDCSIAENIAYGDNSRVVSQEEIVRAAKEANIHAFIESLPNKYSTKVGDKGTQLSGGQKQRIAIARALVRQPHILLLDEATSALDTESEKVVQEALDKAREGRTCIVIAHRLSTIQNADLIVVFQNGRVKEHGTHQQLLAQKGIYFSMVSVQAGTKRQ
# [6] = inhibitors acting on PAX2 in cells – cell-based, plate reader, dry powder samples, selectivity assay for PAX8 inhibitor project, dose response (AID 743048); format: functional;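 also: HEK293 cells carrying a WT1 promoter luciferase reporter driven by expressed Pax2; potency is for inhibition of Pax2 driven reporter signal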
# [7] = OVCAR8 cell viability loss – plate reader, dry powder samples, PAX8 project, dose response (AID 743197); format: functional, cell-based; conditions: OVCAR-8
# [8] = CMV-driven luciferase expression suppression in HEK293 – cell-based, luminescence, dry powder, counter-screen for Pax8 inhibitor project, dose response (AID 743020); format: functional
# [9] = target: Paired box protein Pax-8 (Homo sapiens, UniProt Q06710); experiment: PAX8 transcriptional activity inhibition in RMG-I – RMG-I cells, luciferase, cherry-pick, dose response (AID 687027); format: functional, cell-based;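 also: luciferase reporter driven by Pax8 target thyroperoxidase promoter measured by SteadyGlo luminescence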
# Chain of Paired box protein Pax-8 (Q06710 whole entry): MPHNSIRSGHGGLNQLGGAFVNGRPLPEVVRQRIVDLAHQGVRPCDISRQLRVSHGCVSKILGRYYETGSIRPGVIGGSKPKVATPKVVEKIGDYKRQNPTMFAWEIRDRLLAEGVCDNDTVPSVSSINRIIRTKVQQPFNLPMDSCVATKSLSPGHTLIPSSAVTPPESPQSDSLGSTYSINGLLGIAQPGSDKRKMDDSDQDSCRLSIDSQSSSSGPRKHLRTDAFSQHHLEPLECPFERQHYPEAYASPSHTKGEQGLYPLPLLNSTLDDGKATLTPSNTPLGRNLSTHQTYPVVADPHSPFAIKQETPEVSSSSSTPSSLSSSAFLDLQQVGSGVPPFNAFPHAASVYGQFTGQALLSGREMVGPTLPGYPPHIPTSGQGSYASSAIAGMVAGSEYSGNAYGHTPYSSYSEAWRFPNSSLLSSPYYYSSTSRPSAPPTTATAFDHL
# [10] = OVCAR-3 cell viability loss – plate reader, dry powder samples, PAX8 inhibitor project, dose response (AID 743044); format: functional, cell-based
# [11] = OVCAR4 cell viability loss – plate reader, dry powder, SA11, cytotoxicity control for PAX8 inhibitor project, dose response (AID 743150); format: functional, cell-based; conditions: OVCAR-4
# [12] = PAX5 cellular inhibition readout – cell-based, plate reader, dry powder samples, selectivity assay for PAX8 inhibitor project, dose response (AID 743047); format: functional;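 also: HEK293 cells carrying a Pax5 driven CD19 promoter luciferase reporter; potency of inhibitors that lower reporter luminescence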
# [13] = PAX8-dependent cell viability loss – plate reader, dry powder, dose response (AID 743049); format: functional, cell-based
# [14] = COV434 cell viability loss – plate reader, dry powder, SA7, cytotoxicity control for PAX8 inhibitor project, dose response (AID 743145); format: functional, cell-based
# [15] = general cell-killing toxicity readout – plate reader, dry powder samples, cytotoxicity control for PAX8 inhibitor project, dose response (AID 743021); format: functional, cell-based
# [16] = cells; format: functional, cell-based
# [17] = cells; format: functional, cell-based; remark: listed apart in the source
# [18] = target: T1, Trace amine-associated receptor 1 (Homo sapiens, UniProt Q96RJ0); experiment: Fluorescence-based cell-based high throughput dose response assay to identify agonists of the human trace amine associated receptor 1 (TAAR1).; format: functional
# T1 sequence (Q96RJ0 whole entry): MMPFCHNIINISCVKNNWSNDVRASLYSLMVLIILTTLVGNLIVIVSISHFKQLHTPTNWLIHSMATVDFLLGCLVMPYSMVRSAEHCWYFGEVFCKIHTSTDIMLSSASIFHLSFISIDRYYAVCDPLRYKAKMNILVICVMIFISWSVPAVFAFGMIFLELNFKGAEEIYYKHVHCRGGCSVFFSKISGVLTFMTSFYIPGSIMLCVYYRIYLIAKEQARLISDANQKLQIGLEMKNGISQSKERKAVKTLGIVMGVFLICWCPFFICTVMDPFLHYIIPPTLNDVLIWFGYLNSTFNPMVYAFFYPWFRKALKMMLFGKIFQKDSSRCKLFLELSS
# [19] = target: T1, Trace amine-associated receptor 1; experiment: Counterscreen for agonists of the human trace amine associated receptor 1 (hTAAR1): Fluorescence-based cell-based high throughput dose response assay to identify hTAAR1 agonist that also desensitize TAAR1 receptor response.; format: functional
# [20] = system: Vero; experiment: viability loss in Vero cells – cell-based, plate reader, cherry-pick samples, cytotoxicity control, dose response (AID 687020); format: functional; conditions: Chlorocebus sabaeus
# [21] = target: Protein disulfide-isomerase (Homo sapiens, UniProt P07237); experiment: inhibition of PDI-mediated insulin reduction – biochemical, turbidity, dry powder samples, set 2, confirmation (AID 652146)
# Chain of Protein disulfide-isomerase (P07237 whole entry): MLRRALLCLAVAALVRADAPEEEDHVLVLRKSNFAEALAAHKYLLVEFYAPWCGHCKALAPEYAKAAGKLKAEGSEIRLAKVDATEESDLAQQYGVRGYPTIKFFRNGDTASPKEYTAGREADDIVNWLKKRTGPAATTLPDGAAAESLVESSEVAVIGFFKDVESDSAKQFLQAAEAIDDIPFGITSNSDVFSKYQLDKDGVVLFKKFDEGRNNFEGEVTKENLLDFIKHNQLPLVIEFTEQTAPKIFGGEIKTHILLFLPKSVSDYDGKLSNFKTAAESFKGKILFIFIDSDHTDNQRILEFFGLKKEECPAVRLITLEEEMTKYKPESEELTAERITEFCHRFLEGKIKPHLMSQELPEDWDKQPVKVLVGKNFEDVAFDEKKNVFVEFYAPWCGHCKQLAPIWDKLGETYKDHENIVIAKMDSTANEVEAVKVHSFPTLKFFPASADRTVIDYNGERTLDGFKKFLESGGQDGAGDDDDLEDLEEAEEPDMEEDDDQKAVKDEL
# [22] = target: Metabotropic glutamate receptor 5 (Rattus norvegicus, UniProt P31424); experiment: Identification of a glycine sulfonamide based non-MPEP site positive allosteric potentiator (PAM) of mGlu5 (calcium_assay).; format: functional
# Chain of Metabotropic glutamate receptor 5 (P31424 whole entry): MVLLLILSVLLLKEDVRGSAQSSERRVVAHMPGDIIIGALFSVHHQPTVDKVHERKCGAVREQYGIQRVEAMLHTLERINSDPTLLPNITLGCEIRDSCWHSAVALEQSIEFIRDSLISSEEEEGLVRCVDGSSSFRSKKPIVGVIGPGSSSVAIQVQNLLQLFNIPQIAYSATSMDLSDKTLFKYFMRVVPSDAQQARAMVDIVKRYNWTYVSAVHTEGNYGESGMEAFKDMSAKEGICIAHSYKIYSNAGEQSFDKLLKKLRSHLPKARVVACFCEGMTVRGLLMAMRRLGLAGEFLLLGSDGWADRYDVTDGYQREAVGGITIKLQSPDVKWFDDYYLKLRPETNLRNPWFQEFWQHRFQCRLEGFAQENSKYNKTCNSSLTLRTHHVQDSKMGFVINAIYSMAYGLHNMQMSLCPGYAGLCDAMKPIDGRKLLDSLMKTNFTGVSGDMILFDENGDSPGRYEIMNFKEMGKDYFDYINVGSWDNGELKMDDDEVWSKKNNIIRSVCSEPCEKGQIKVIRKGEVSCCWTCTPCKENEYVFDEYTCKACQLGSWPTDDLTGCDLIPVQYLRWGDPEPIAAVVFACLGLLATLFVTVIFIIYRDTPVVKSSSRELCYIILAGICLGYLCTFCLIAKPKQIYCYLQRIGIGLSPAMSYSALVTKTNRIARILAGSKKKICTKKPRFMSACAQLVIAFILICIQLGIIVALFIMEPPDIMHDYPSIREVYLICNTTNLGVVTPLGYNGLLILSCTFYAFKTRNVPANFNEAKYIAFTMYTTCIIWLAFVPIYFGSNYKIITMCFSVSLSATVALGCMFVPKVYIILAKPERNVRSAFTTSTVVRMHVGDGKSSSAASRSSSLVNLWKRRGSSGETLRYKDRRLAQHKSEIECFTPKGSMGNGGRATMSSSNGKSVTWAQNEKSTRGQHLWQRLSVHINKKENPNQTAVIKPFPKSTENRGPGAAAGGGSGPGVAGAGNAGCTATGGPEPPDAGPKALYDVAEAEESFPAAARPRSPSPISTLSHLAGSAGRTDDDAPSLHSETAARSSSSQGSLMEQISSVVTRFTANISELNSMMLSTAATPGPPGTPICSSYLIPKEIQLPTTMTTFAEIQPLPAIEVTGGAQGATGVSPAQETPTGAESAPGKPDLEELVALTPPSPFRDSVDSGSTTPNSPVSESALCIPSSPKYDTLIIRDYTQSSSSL
# [23] = general mammalian cell viability loss – inhibitor set, cherry-pick, set 2, cytotoxicity control for miR-122 modulator project, dose response (AID 720697); format: functional, cell-based
# [24] = inhibition of bursicon-driven LGR2 cAMP signaling – cell-based, HEK293, CRE-luciferase reporter, cherry pick, dose response (AID 743342); format: functional
# [25] = MITF Orthogonal Assay: SK-MEL-5 CTG Assay Measured in Cell-Based System Using Plate Reader - 2084-02_Inhibitor_Dose_DryPowder_Activity_Set7.; format: functional
# [26] = MITF: Counter assay: A375 proliferation Measured in Cell-Based System Using Plate Reader - 2084-03_Inhibitor_Dose_DryPowder_Activity_Set8.; format: functional; conditions: A-375
# [27] = rescue of ΔF508 CFTR function, airway epithelium – human bronchial epithelial cells, plate reader, cherry-pick, two tests, dose response (AID 743267); format: functional, cell-based
compound,measurement,setting,value
CCC(C)c1ccc(S(=O)(=O)N2CCN(C(=O)c3ccc(Cl)c(S(=O)(=O)N4CCOCC4)c3)CC2)cc1 (configuration not stated),AC50,[1],6.16 µM (active)
same,AC50,[2],61.3 µM (active)
same,AC50,[3],5.32 µM (active)
same,AC50,[4],> 70 µM (inactive)
Cc1ccc(-c2cc3nc(-c4ccco4)cc(N4CCN(Cc5ccoc5)CC4)n3n2)cc1,EC50,[5],0.01411 µM
Cc1ccc(S(=O)(=O)Nc2ccc3c(c2)C(=O)N([C@H](C)CO)C[C@@H](C)[C@H](CN(C)Cc2ccc(C(F)(F)F)cc2)OCCCC[C@H](C)O3)cc1,AC50,[6],22 µM (active)
same,AC50,[7],14.9 µM (active)
same,AC50,[8],29.4 µM (active)
same,AC50,[9],3.93 µM (active)
same,AC50,[10],27 µM (active)
same,AC50,[11],44.2 µM (active)
same,AC50,[12],22.1 µM (active)
same,AC50,[13],39.7 µM (active)
same,AC50,[14],35.5 µM (active)
same,AC50,[15],31 µM (active)
CC(C)[C@H](NC(=O)c1ccccc1)C(=O)N1CCC[C@H]1C(=O)NCCc1ccccc1Cl,EC50,[16],> 29.9 µM (inactive)
same,IC50,[17],> 29.9 µM (inactive)
same,EC50,[18],0.754 µM (active)
same,IC50,[19],1.2 µM (active)
O=C(NCCN1CCCC1)[C@H]1N[C@H]2c3ccc(-c4ccccc4)c(=O)n3C[C@H]2[C@@H]1CO,AC50,[20],23.1 µM (active)
C=CCOc1ccc(CN2CCC(CCOc3ccccc3)(C(=O)N(C)CC)CC2)cc1Cl,AC50,[21],> 30 µM (inactive)
CC(C(=O)Nc1cc(F)cc(C#N)c1)N(c1ccccc1Cl)S(C)(=O)=O (configuration not stated),EC50,[22],5.45 µM
C[C@H](CO)N1C[C@H](C)[C@H](CN(C)S(=O)(=O)c2ccc(F)cc2)Oc2ccc(NS(C)(=O)=O)cc2C1=O,AC50,[23],1.19 µM (active)
C[C@H](CO)N1C[C@H](C)[C@H](CN(C)C(=O)Nc2ccccc2)OCCCC[C@H](C)Oc2ccc(NC(=O)NC3CCCCC3)cc2C1=O,AC50,[24],12 µM (active)
CC1=C(N)C(=O)c2ccccc2C1=O,AC50,[25],3.74 µM (active)
same,AC50,[26],> 70 µM (inactive)
COc1c(O[C@@H]2O[C@H](CO)[C@@H](O)[C@H](O)[C@H]2O)cc2c(c1OC)-c1ccc(SC)c(=O)cc1[C@@H](NC(C)=O)CC2 [THIOCOLCHICOSIDE],AC50,[27],50 µM (active)
